This data set relates to anaerobic mixed culture (domestic sewage). Briefly: Anaerobic digestion of domestic sewage, overall effect of formate salt concentration. How it is done: The various formate salts include, but are not limited to sodium formate (NaHCOO), potassium formate (KHCOO), ammonium formate (NH4COO), calcium formate (Ca(HCOO)2), and others either singly or in combination. These formate salts have been tested for concentrations ranging from 10 mg/L (˜10 ppm) to as high as […] (100,000 mg/L) based on the organic matter available for digestion.
Two tests were run in which sodium formate in concentrations ranging from a few parts per million (ppm) up to ten percent (10%) on a mass basis were added to samples taken from a publicly owned anaerobic digester. The samples were first cultured in laboratory sized batch reactors. The twelve batch reactors were then sampled, and studied for periods of up to fifty-five days. The process variables that were monitored included COD (Chemical Oxygen Demand), TS (Total Solids), TVS (Total Volatile Solids) and the pH of the culture. Time and the initial sodium formate concentration level were the independent variables. Finally measurements were also made of the bacterial counts at the beginning and at the end of the fifty five day period.
Municipal sludge from the city of Lubbock, Wastewater Treatment Plant was digested in 12 batch digesters. Using twelve batch reactors allowed the collection of control reactors data (i.e., no formate in the reactors) in triplicate, titration studies of increasing formate concentration, and duplicates/triplicates of varying formate concentration. Experiments were conducted in the laboratories of Texas Tech University.

Consider one compound from patent US20020162794A1, “Anaerobic digestion” (priority 2001, published 2002).

For `O=C[O-].[Na+]` [sodium formate], the “effect on anaerobic digestion over the tested concentration range” value (10 mg/L to 100,000 mg/L based on the organic matter available for digestion) is “beneficial at all concentration levels”. Further, the “concentration range of greatest effects” value (10 mg/L to 100,000 mg/L tested) is “greatest effects being observed over the 100 ppm to the 2,000-mg/L range”. In addition, for the setting “above the 5000 ppm concentration level”, the “cellular activity in the mixed culture” value was “slightly, but still progressively more inhibited”. In addition, under “overdose”, the “effect of accidental addition of too much (titration data)” value is “would not shut down the digester culture”. Besides, under “up to 5000 ppm, batch reactors, up to 55 days”, the “effect on anaerobic digestion process” value was “facilitate the anaerobic digestion process at all concentration levels up to 5000 ppm”.
